#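 Test compounds were applied to cells in 96-well plates for 48 hours at 5 doses. GI50: concentration for 50% inhibition of growth.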 Activity calls are given as the source filed them. Rule as the data show it: active = GI50 up to about 1.1 µM and inactive = higher.
# Columns and labels:
# Test in all cases: growth of human tumour cells (NCI), 48 h
# 786-0 = tested on: 786-0
# A498 = tested on: A498
# A549 = tested on: A549
# ACHN = tested on: ACHN
# CAKI-1 = tested on: CAKI-1
# CCRF-CEM = tested on: CCRF-CEM
# COLO 205 = tested on: COLO 205
# DLD-1 = tested on: DLD-1
# DMS-114 = tested on: DMS-114
# DMS-273 = tested on: DMS-273
# EKVX = tested on: EKVX
# HCC 2998 = tested on: HCC 2998
# HCT-116 = tested on: HCT-116
# HCT-15 = tested on: HCT-15
# HL-60 = tested on: HL-60
# HOP-62 = tested on: HOP-62
# HOP-92 = tested on: HOP-92
# HT-29 = tested on: HT-29
# IGROV-1 = tested on: IGROV-1
# K562 = tested on: K562
# KM-20L2 = tested on: KM-20L2
# KM12 = tested on: KM12
# LOX IMVI = tested on: LOX IMVI
# LXFL 529 = tested on: LXFL 529
# M14 = tested on: M14
# M19-MEL = tested on: M19-MEL
# Malme-3M = tested on: Malme-3M
# NCI-H226 = tested on: NCI-H226
# NCI-H23 = tested on: NCI-H23
# NCI-H460 = tested on: NCI-H460
# NCI-H522 = tested on: NCI-H522
# OVCAR-3 = tested on: OVCAR-3
# OVCAR-4 = tested on: OVCAR-4
# OVCAR-5 = tested on: OVCAR-5
# OVCAR-8 = tested on: OVCAR-8
# RPMI-8226 = tested on: RPMI-8226
# RXF 393 = tested on: RXF 393
# RXF 631 = tested on: RXF 631
# SF-268 = tested on: SF-268
# SF-295 = tested on: SF-295
# SF-539 = tested on: SF-539
# SK-MEL-28 = tested on: SK-MEL-28
# SK-MEL-2 = tested on: SK-MEL-2
# SK-MEL-5 = tested on: SK-MEL-5
# SK-OV-3 = tested on: SK-OV-3
# SN12C = tested on: SN12C
# SNB-19 = tested on: SNB-19
# SNB-75 = tested on: SNB-75
# SNB-78 = tested on: SNB-78
# SW-620 = tested on: SW-620
# TK-10 = tested on: TK-10
# U-251 = tested on: U-251
# UACC-257 = tested on: UACC-257
# UACC-62 = tested on: UACC-62
# UO-31 = tested on: UO-31
# MOLT-4 = tested on: MOLT-4
# SR = tested on: SR
smiles,measurement,setting,value
O=C(CC(=O)C1CCOC1=O)C(=O)Nc1ccc(Cl)cc1 (configuration not stated),GI50,786-0,> 100 µM (inactive)
same,GI50,A498,> 100 µM (inactive)
same,GI50,A549,> 100 µM (inactive)
same,GI50,ACHN,> 100 µM (inactive)
same,GI50,CAKI-1,> 100 µM (inactive)
same,GI50,CCRF-CEM,> 100 µM (inactive)
same,GI50,COLO 205,> 100 µM (inactive)
same,GI50,DLD-1,> 100 µM (inactive)
same,GI50,DMS-114,> 100 µM (inactive)
same,GI50,DMS-273,> 100 µM (inactive)
same,GI50,EKVX,> 100 µM (inactive)
same,GI50,HCC 2998,> 100 µM (inactive)
same,GI50,HCT-116,> 100 µM (inactive)
same,GI50,HCT-15,> 100 µM
same,GI50,HL-60,> 100 µM (inactive)
same,GI50,HOP-62,> 100 µM (inactive)
same,GI50,HOP-92,> 100 µM (inactive)
same,GI50,HT-29,> 100 µM (inactive)
same,GI50,IGROV-1,> 100 µM (inactive)
same,GI50,K562,> 100 µM (inactive)
same,GI50,KM-20L2,> 100 µM (inactive)
same,GI50,KM12,> 100 µM (inactive)
same,GI50,LOX IMVI,> 100 µM (inactive)
same,GI50,LXFL 529,> 100 µM (inactive)
same,GI50,M14,> 100 µM (inactive)
same,GI50,M19-MEL,> 100 µM (inactive)
same,GI50,Malme-3M,> 100 µM (inactive)
same,GI50,NCI-H226,> 100 µM (inactive)
same,GI50,NCI-H23,> 100 µM (inactive)
same,GI50,NCI-H460,> 100 µM (inactive)
same,GI50,NCI-H522,> 100 µM (inactive)
same,GI50,OVCAR-3,> 100 µM (inactive)
same,GI50,OVCAR-4,> 100 µM (inactive)
same,GI50,OVCAR-5,> 100 µM (inactive)
same,GI50,OVCAR-8,> 100 µM (inactive)
same,GI50,RPMI-8226,> 100 µM (inactive)
same,GI50,RXF 393,> 100 µM (inactive)
same,GI50,RXF 631,> 100 µM (inactive)
same,GI50,SF-268,> 100 µM (inactive)
same,GI50,SF-295,> 100 µM (inactive)
same,GI50,SF-539,> 100 µM (inactive)
same,GI50,SK-MEL-28,> 100 µM (inactive)
same,GI50,SK-MEL-2,> 100 µM (inactive)
same,GI50,SK-MEL-5,> 100 µM (inactive)
same,GI50,SK-OV-3,> 100 µM (inactive)
same,GI50,SN12C,> 100 µM (inactive)
same,GI50,SNB-19,> 100 µM (inactive)
same,GI50,SNB-75,> 100 µM (inactive)
same,GI50,SNB-78,> 100 µM (inactive)
same,GI50,SW-620,> 100 µM (inactive)
same,GI50,TK-10,> 100 µM (inactive)
same,GI50,U-251,> 100 µM (inactive)
same,GI50,UACC-257,> 100 µM (inactive)
same,GI50,UACC-62,> 100 µM (inactive)
same,GI50,UO-31,> 100 µM (inactive)
O=C(CC1(O)C(=O)Nc2ccc(Br)cc21)c1ccc(Cl)cc1Cl (configuration not stated),GI50,786-0,87.1 µM (inactive)
same,GI50,A498,> 100 µM (inactive)
same,GI50,A549,92 µM (inactive)
same,GI50,ACHN,60.1 µM (inactive)
same,GI50,CCRF-CEM,20.2 µM (inactive)
same,GI50,COLO 205,65.5 µM (inactive)
same,GI50,DLD-1,47.1 µM (inactive)
same,GI50,DMS-114,20.9 µM (inactive)
same,GI50,EKVX,> 100 µM (inactive)
same,GI50,HCC 2998,91.8 µM (inactive)
same,GI50,HCT-116,31.8 µM (inactive)
same,GI50,HCT-15,69 µM
same,GI50,HL-60,19.1 µM (inactive)
same,GI50,HOP-62,83.6 µM (inactive)
same,GI50,HT-29,38.3 µM (inactive)
same,GI50,IGROV-1,51.4 µM (inactive)
same,GI50,K562,39.6 µM (inactive)
same,GI50,KM-20L2,> 100 µM (inactive)
same,GI50,KM12,52.6 µM (inactive)
same,GI50,LXFL 529,32.4 µM (inactive)
same,GI50,M14,34.8 µM (inactive)
same,GI50,M19-MEL,14.9 µM (inactive)
same,GI50,MOLT-4,26.3 µM (inactive)
same,GI50,Malme-3M,63.7 µM (inactive)
same,GI50,NCI-H226,39.4 µM (inactive)
same,GI50,NCI-H23,53.2 µM (inactive)
same,GI50,NCI-H460,49.8 µM (inactive)
same,GI50,NCI-H522,25.1 µM (inactive)
same,GI50,OVCAR-3,34.9 µM (inactive)
same,GI50,OVCAR-4,36.1 µM (inactive)
same,GI50,OVCAR-5,> 100 µM (inactive)
same,GI50,OVCAR-8,47.9 µM (inactive)
same,GI50,RPMI-8226,22.1 µM (inactive)
same,GI50,RXF 393,91.6 µM (inactive)
same,GI50,RXF 631,43.9 µM (inactive)
same,GI50,SF-268,50.1 µM (inactive)
same,GI50,SF-295,64.7 µM (inactive)
same,GI50,SF-539,45.5 µM (inactive)
same,GI50,SK-MEL-28,44 µM (inactive)
same,GI50,SK-MEL-2,31.7 µM (inactive)
same,GI50,SK-OV-3,79.1 µM (inactive)
same,GI50,SN12C,35.6 µM (inactive)
same,GI50,SNB-19,> 100 µM (inactive)
same,GI50,SNB-75,38 µM (inactive)
same,GI50,SNB-78,37.8 µM (inactive)
same,GI50,SR,23.7 µM (inactive)
same,GI50,SW-620,37.1 µM (inactive)
same,GI50,TK-10,56.2 µM (inactive)
same,GI50,U-251,49.2 µM (inactive)
same,GI50,UACC-257,30.9 µM (inactive)
same,GI50,UACC-62,17.2 µM (inactive)
same,GI50,UO-31,> 100 µM (inactive)

# Reference: ChEMBL document CHEMBL1201862, “PubChem BioAssay data set” (2004)
